Bounds are passed on as bounds.

We go through five molecules from patent US5445956A, “Recombinant soluble epoxide hydrolase” (The Regents of the University of California, priority 1993, dated 1995).

In one series the test system is sEH. Particulars: inhibits only very weakly other enzymes that catalyze hydrolysis or conjugation of epoxides; Mullin and Hammock 1982, Prestwich 1985; cited from earlier work.
In series [1] the target is T1, human sEH (Homo sapiens, UniProt P34913).
T1 construct: made in house; host or cells: Spodoptera frugiperda Sf21 cells infected with recombinant AcNPV (AchsEH1)
T1 sequence (P34913 1-555): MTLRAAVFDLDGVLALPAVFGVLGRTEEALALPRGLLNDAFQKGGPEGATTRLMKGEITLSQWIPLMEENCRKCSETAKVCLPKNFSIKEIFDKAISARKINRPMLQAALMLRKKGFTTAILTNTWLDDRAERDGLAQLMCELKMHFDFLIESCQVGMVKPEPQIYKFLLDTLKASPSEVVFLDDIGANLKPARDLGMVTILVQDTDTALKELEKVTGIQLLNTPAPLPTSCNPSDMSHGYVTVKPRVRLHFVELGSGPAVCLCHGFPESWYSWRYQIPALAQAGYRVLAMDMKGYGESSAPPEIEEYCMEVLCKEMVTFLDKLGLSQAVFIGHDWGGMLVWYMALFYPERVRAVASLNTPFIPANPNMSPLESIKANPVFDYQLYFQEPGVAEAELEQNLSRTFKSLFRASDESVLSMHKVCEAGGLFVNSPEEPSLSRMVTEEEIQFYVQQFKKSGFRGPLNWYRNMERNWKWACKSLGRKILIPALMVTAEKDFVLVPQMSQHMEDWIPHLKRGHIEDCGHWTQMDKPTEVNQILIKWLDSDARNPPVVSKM
The experiment in a line: Human soluble EH activity in lysates of Sf21 cells infected with recombinant AcNPV, TSO and CSO as substrates. To be noted: for inhibition at 62.5 µM: preincubation of lysates from human sEH expressing cells with inhibitor (62.5 μM, Table II), read-out: inhibition of the hydrolysis of TSO and CSO. It is filed as biochemical. The text has this: To obtain recombinant baculovirus, Spodoptera frugiperda 21 (Sf21) insect cells are cotransfected with plasmid pAcUW21-hsEH plus linearized DNA (AcRP6-SC) of Autographa californica nuclear polyhedrosis virus (AcNPV). […] The resulting virus plaque is purified as described by O'Reilly, D. R., et al., in Baculovirus Expresssion Vectors. A Labortory Manual, p. […] Cultures of Sf21 cells are then infected with recombinant AcNPV containing the human sEH sequence or with control AcNPV. Uninfected cultures are also maintained. Cultures are maintained 4 to 5 days post infection before harvesting proteins. For extraction of proteins, cells are washed (three times in 90 mM NaHPO4 pH7.4) then lysed (in 90 mM NaHPO4 pH7.4, 1 mM EDTA, 1 mM phenylmethylsulfonyl fluoride) by 3 cycles of freeze thawing (dry ice ethanol and 37° C. H2 O baths).
A., and B. D. Hammock in Arch. […] Biochem. Biophys.

In series [2] the test system is monkey and murine microsomal EH. To be noted: at 2 mM; cited from earlier work.
Series [3] deals with basal sEH activity of COS-7 cells. The experiment in a line: Basal epoxide hydrolase activity (TSO) in extracts of vector-control or mock transfected COS-7 cells. In kind it is biochemical, monkey. On the procedure:
(§1) To detect soluble epoxide hydrolase activity or to monitor its relative purity, one uses the partition assay of Wixtrom, R. N., and B. D. Hammock in Biochemical Pharmacoloyt and Toxicology (Zakim, D., and Vessey, D. A., Eds), Vol. 1, pp. 1-93. Wiley, New York ([…]) with [^3 H]-trans-stilbene oxide ([^3 H]TSO) as substrate, incorporated herein by reference. In brief this assay entails: coincubating the enzyme with radiolabled substrate that is much more soluble in organic than aqueous solutions. Next, the enzyme substrate is extracted with organic solvent such that the substrate partitions into the organic phase but the more polar and water-soluble product (a vicinal diol) partitions to the aqueous phase. An aliquot of the aqueous phase is then analyzed for concentration of product by quantification of radioactivity. The substrate [^3 H]TSO is prepare by the method described by Gill, S. S., et al., in Anal. Biochem., 131:273-282 (1993) incorporated herein by reference.
(§2) cos-7 cells are grown as a monolayer culture in Dulbecco's modified Eagle's medium (ICN) containing 10% fetal calf serum (ICN) plus penicillin G (100 U/ml) and streptomycin sulfate (100 ug/ml). Cell transfections are mediated by lipofectin (Gibco) according to standard protocol. Approximately 1×10^6 cells are transfected in 100 mm dishes with 5 ug of murine sEH-pJ3omega, 5 ug pJ3omega vector control or a mock transfection control containing lipofectin only (60 ul/plate). All transfections except the mock transfection control contain 2.5 ug of the beta-galactosidase plasmid, pSV-beta-Gal (Promega) can be used as an internal positive control. After 36 hours, cells are washed 5 times with PBS and collected by scraping into 1.5 ml centrifuge tubes. The cells are then pelleted (12 k×g, 4° C., 30 seconds), resuspended in 150 ul of lysis buffer (40 mM tris, pH 8.0, 150 mM NaCl, 0.2 mM PMSF, 1 mM EDTA) and lysed by 3 cycles of freezing and thawing. The cells are again centrifuged and the supernatant used for enzyme assays and protein determination. Beta-galactosidase is assayed as described (Sambrook et al., 1989). sEH activity is assayed using TSO as described by the method of Wixtrom, R. N. and B. D. Hammock in Biochemical Pharmacology and Toxicology, (Zakim, D. and Vessey, D. A., ed.) 1:1-93 (1985).
The functional analysis of recombinant murine sEH expressed in COS-7 cells was performed following the methods described above. […] Transfected cells expressed approximately the same level of sEH activity as did mock transfected cells when 1 mM t-ENPG was included in the enzyme assay. […] The differences in specific activity among the experiments in Table I are most likely due to differences in cell density during transfections.
As well as detecting the transiently expressed sEH, the anti-rhesus-sEH antiserum also detected a protein that migrates identically with mouse sEH.

The target of another series is T2, murine sEH (Mus musculus, UniProt P34914).
T2 construct: A primer pair to amplify the entire coding region is; expressed in transfected cells; host or cells: COS-7
T2 sequence (P34914 1-554): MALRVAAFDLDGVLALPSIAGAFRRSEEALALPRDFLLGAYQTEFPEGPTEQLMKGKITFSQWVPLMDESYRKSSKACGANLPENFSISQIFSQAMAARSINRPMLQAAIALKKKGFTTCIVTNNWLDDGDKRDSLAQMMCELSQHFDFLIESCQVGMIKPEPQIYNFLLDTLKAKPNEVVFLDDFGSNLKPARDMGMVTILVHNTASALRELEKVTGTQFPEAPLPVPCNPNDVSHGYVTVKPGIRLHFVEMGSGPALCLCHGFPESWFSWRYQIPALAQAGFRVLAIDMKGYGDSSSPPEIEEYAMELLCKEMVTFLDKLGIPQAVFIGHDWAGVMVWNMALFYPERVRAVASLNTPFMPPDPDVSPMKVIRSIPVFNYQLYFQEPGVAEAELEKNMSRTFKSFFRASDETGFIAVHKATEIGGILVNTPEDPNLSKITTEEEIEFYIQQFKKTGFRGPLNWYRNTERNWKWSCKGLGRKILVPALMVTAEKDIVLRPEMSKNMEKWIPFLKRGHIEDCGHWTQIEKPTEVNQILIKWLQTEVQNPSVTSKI
The series is described as follows: Epoxide hydrolase activity (TSO partition assay) in extracts of COS-7 cells transfected with murine sEH expression vector. In kind it is biochemical. To be noted: psEH-pJ3omega transfected COS-7 cells + t-ENPG 1 mM final concentration. On the procedure:
as §1
as §2, with “Beta-galactosidase is assayed as described (Sambrook et al., 1989). sEH activity is assayed using TSO as described by the method of Wixtrom, R. N. and B. D. Hammock in Biochemical Pharmacology and Toxicology, (Zakim, D. and Vessey, D. A., ed.) 1:1-93 (1985).” left out

Another series has as its system soluble EH. To be noted: at 8 uM; cited from earlier work.
For series [4], the system named is sEH of various species (mouse, rabbit, primate). To be noted: Dietze et al. 1991, 1993, read-out: I50; cited from earlier work.
Series [5] deals with T1, human sEH. The experiment in a line: Heat lability of expressed human sEH. It is filed as biochemical. Particulars: enzyme assay mixture preincubated 15 min at 65° C.
[6] abbreviates: AchsEH1 infected Sf21 lysate, inhibitor 62.5 μM, ND = no activity detected where 0.65 was distinguishable above background.

As usually defined, the inhibition is how much of the control response was suppressed. On to `O=C(c1ccccc1)C1OC1c1ccc(F)cc1` (centres unmarked) [4FCO, 4-fluorochalcone oxide], for which the “selectivity for sEH” value with sEH is “very selective inhibitor of sEH”. Besides, the inhibition at 62.5 µM at human sEH [1] is 100%.
As to `O=[N+]([O-])c1ccc([C@@H]2O[C@H]2CO)cc1` [t-ENPG, trans2(S),3(S)-epoxy-3-(4-nitrophenyl) glycidol], in series [2], the “inhibition of microsomal EH” value is given as at most 23%. Besides, the “Epoxide hydrolase activity (±S.D.) remaining with inhibitor” value in series [3] (Experiment 1, mock transfected COS-7 cells + t-ENPG 1 mM) turned out to be 74 ± 6 pmol·min/mg; in series [3] (Experiment 1, pJ3omega vector control transfected COS-7 cells + t-ENPG 1 mM), 69 ± 6 pmol·min/mg; in series [3] (Experiment 2, mock transfected COS-7 cells + t-ENPG 1 mM), 106 ± 5 pmol·min/mg; in series [3] (Experiment 2, pJ3omega vector control transfected COS-7 cells + t-ENPG 1 mM), 97 ± 4 pmol·min/mg; in series [3] (Experiment 3, mock transfected COS-7 cells + t-ENPG 1 mM) it was 88 ± 2 pmol·min/mg; in series [3] (Experiment 3, pJ3omega vector control transfected COS-7 cells + t-ENPG 1 mM), 113 ± 8 pmol·min/mg. The “Epoxide hydrolase activity (±S.D.) remaining with inhibitor” value at murine sEH (Experiment 1) worked out at 76 ± 20 pmol·min/mg; on murine sEH (Experiment 2), 109 ± 4 pmol·min/mg; on murine sEH (Experiment 3) it was 134 ± 6 pmol·min/mg. Also, the “inhibition of soluble EH” value in the series on soluble EH is listed as at least 50%.
With `O=[N+]([O-])c1ccc([C@@H]2O[C@H]2CO)cc1` [SSNPG, (2S,3S)-3-(4-nitrophenyl) glycidol], the “specific activity remaining with inhibitor, substrate TSO” value on human sEH [1] (setting [6]) is given as 5.73 (0.56) nmoles TSO or CSO converted to. Moreover, the inhibition at 62.5 µM on human sEH [1] came to 73%. For the same molecule, the IC50 in series [4] was 1 to 10 µM.
For the molecule `O=[N+]([O-])c1ccc([C@H]2O[C@@H]2CO)cc1` [RRNPG, (2R,3R)-3-(4-nitrophenyl) glycidol], on human sEH [1] (setting [6]), the “specific activity remaining with inhibitor, substrate CSO” value is recorded as 19.8 (1.26) nmoles TSO or CSO converted to. Besides, the inhibition at 62.5 µM at human sEH [1] stood at 39%. Also, in series [4], the IC50 was above 690 µM.

B1: expressed human sEH: recombinant human soluble epoxide hydrolase (Seq ID No.2) expressed in Sf21 cells (protein)
chain: MTLRGAVFDLDGVLALPAVFGVLGRTEEALALPRGLLNDAFQKGGPEGATTRLMKGEITLSQWIPLMEENCRKCSETAKVCLPKNFSIKEIFDKAISARKINRPMLQAALMLRKKGFTTAILTNTWLDDRAERDGLAQLMCELKMHFDFLIESCQVGMVKPEPQIYKFLLDTLKASPSEVVFLDDIGANLKPARDLGMVTILVQDTDTALKELEKVTGIQLLNTPAPLPTSCNPSDMSHGYVTVKPRVRLHFVELGWPAVCLCHGFPESWYSWRYQIPALAQAGYRVLAMDMKGYGESSAPPEIEEYCMEVLCKEMVTFLDKLGLSQAVFIGHDWGGMLVWYMALFYPERVRAVASLNTPFIPANPNMSPLESIKANPVFDYQLYFQEPGVAEAELEQNLSRTFKSLFRASDESVLSMHKVCEAGGLFVNSPEEPSLSRMVTEEEIQFYVQQFKKSGFRGPLNWYRNMERNWKWACKSLGRKILIPALMVTAEKDFVLVPQMSQHMEDWIPHLKRGHIEDCGHWTQMDKPTEVNQILIKWLDSDARNPPVVSKM
As for B1, the “inhibition of activity by heat (heat lability)” value with human sEH [5] stood at 100%.
